{"source": "patent US20180177749A1", "about": "“USE OF CYP EXPRESSION TO DIRECT THERAPEUTIC INTERVENTION IN CANCER” (REGENTS OF THE UNIVERSITY OF MINNESOTA, priority 2016, published 2018)", "test_system": "MCF-7 xenograft", "assay": "RPPA of protein expression, MCF-7 xenograft endpoint analysis", "type": "in vivo, nude mice", "conditions": "4 mg/kg/day vs. PBS", "protocol": "Frozen xenograft tissue samples were embedded in OCT, and 8 μm sections were obtained using a cryostat. […] The resulting whole tissue lysates were boiled for 8 min at 100° C. and then printed onto a nitrocellulose slide (Avid, Grace Biolabs) along with a BSA protein concentration curve to estimate total protein concentration in each lysate. Total protein levels were assessed in each sample by staining with Sypro Ruby Protein Blot Stain (Invitrogen) according to manufacturer's instructions.\nThe total protein concentration in each sample was estimated by printing onto a nitrocellulose slide along with a BSA standard concentration curve, and total protein levels were assessed by staining with Sypro Ruby Protein Blot Stain (Invitrogen) according to manufacturer's instructions. Tissue lysates were diluted to 250 μg/ml in extraction buffer and stored at −80° C. prior to printing of arrays. RPPA printing and analysis of xenograft samples was conducted as previously described (Wulfkuhle et al., Clin Cancer Res. 2012; 18:6426-35). Antibody staining intensities were quantified using the MicroVigene v5 Software Package (Vigenetech). Signaling pathway activation was evaluated by staining the arrays with 156 antibodies against signaling endpoints, mainly phosphorylated and cleaved protein products. Before use for RPPA analysis, antibody specificity was confirmed by Western blot and analysis as previously described (Wulfkuhle et al., Clin Cancer Res. 2012; 18:6426-35).", "key": {"[1]": {"conditions": "*separate RPPA analysis, separate β actin probe"}}}
{"smiles": "CCCCCCNC(=N)NC(=N)NCc1ccccc1", "note": "[HBB, N1-hexyl-N5-benzyl-biguanide]", "values": [{"measurement": "fold change: 4EBP1 S65", "value": 1.051}, {"measurement": "fold change: 4EBP1 T37/46", "value": 1.261}, {"measurement": "fold change: 4EBP1 T70", "value": 0.595}, {"measurement": "fold change: A-Raf S299", "value": 0.862}, {"measurement": "fold change: AKT S473", "value": 1.042}, {"measurement": "fold change: AKT T308", "value": 0.793}, {"measurement": "fold change: ALK", "value": 1.079}, {"measurement": "fold change: ALK Y1604", "value": 0.954}, {"measurement": "fold change: AMPKalpha S485", "value": 1.126}, {"measurement": "fold change: AMPKbeta S108", "value": 0.665}, {"measurement": "fold change: ATF2 T69/71", "value": 0.713}, {"measurement": "fold change: ATM S1981", "value": 1.034}, {"measurement": "fold change: ATP CItrate Lyase S454", "value": 1.000}, {"measurement": "fold change: ATR S428", "value": 0.810}, {"measurement": "fold change: AXL", "value": 0.566}, {"measurement": "fold change: Acetyl-CoA Carboxylase S79", "value": 0.927}, {"measurement": "fold change: Actin beta", "value": 1.000}, {"measurement": "fold change: Aurora A T288/B T232/C T198", "value": 0.646}, {"measurement": "fold change: B-RAF", "value": 1.130}, {"measurement": "fold change: B-Raf S445", "value": 0.764}, {"measurement": "fold change: BAD", "value": 2.424}, {"measurement": "fold change: BAD S112", "value": 0.833}, {"measurement": "fold change: BAD S136", "value": 0.958}, {"measurement": "fold change: BCL-2", "value": 0.825}, {"measurement": "fold change: BIM", "value": 0.727}, {"measurement": "fold change: Bak", "value": 0.789}, {"measurement": "fold change: Bax", "value": 0.807}, {"measurement": "fold change: Bcl_xL", "value": 0.909}, {"measurement": "fold change: Beclin 1", "value": 0.881}, {"measurement": "fold change: CREB S133", "value": 0.626}, {"measurement": "fold change: Chk1 S345", "value": 1.290}, {"measurement": "fold change: Cl Caspase 3 D175", "value": 1.109}, {"measurement": "fold change: Cl Caspase 9 D315", "value": 1.151}, {"measurement": "fold change: Cl Caspase 9 D330", "value": 1.244}, {"measurement": "fold change: Cleaved PARP D214", "value": 1.277}, {"measurement": "fold change: Cofilin S3", "value": 0.443}, {"measurement": "fold change: CrkL Y207", "value": 0.962}, {"measurement": "fold change: Cyclin A", "value": 1.779}, {"measurement": "fold change: Cyclin B1 V152", "value": 1.197}, {"measurement": "fold change: Cyclin D1 (G124-326)", "value": 1.277}, {"measurement": "fold change: Cyclin D1 T286", "value": 0.611}, {"measurement": "fold change: E-Cadherin", "value": 0.669}, {"measurement": "fold change: EGFR", "value": 0.857}, {"measurement": "fold change: EGFR Y992", "value": 0.803}, {"measurement": "fold change: EGFR Y1068", "value": 1.089}, {"measurement": "fold change: EGFR Y1148", "value": 0.891}, {"measurement": "fold change: EGFR Y1173", "value": 0.954}, {"measurement": "fold change: ER TOTAL", "value": 1.687}, {"measurement": "fold change: ER alpha S118", "value": 0.964}, {"measurement": "fold change: ERK 1-2 T202/Y204", "value": 0.423}, {"measurement": "fold change: ERK TOTAL", "value": 0.791}, {"measurement": "fold change: Elk S383", "value": 1.402}, {"measurement": "fold change: Ephrin A3 Y799/A4 Y799/A5 Y833", "value": 1.149}, {"measurement": "fold change: ErbB2/HER2 Y877", "value": 0.951}, {"measurement": "fold change: ErbB2/HER2 Y1248", "value": 1.239}, {"measurement": "fold change: ErbB3/HER3", "value": 0.851}, {"measurement": "fold change: ErbB3/HER3 Y1197", "value": 1.223}, {"measurement": "fold change: ErbB3/HER3 Y1289", "value": 1.268}, {"measurement": "fold change: FADD S194", "value": 0.672}, {"measurement": "fold change: FAK Y576/577", "value": 1.021}, {"measurement": "fold change: FKHR T24/FKHRL1 T32", "value": 0.698}, {"measurement": "fold change: FKHRL1 S253", "value": 0.960}, {"measurement": "fold change: FOXO1 S256", "value": 0.854}, {"measurement": "fold change: GRB2", "value": 0.830}, {"measurement": "fold change: GSK-3alpha/beta S21/9", "value": 0.791}, {"measurement": "fold change: HIF-1 alpha", "value": 2.406}, {"measurement": "fold change: HSP27 S82", "value": 0.877}, {"measurement": "fold change: HSP70", "value": 1.453}, {"measurement": "fold change: HSP90a T5/7", "value": 0.945}, {"measurement": "fold change: Heregulin", "value": 20.774}, {"measurement": "fold change: Histone H3 S28", "value": 0.898}, {"measurement": "fold change: IGF1R Y1135/36-IR Y1150/51", "value": 1.101}, {"measurement": "fold change: IGF-1R Y1131/IR Y1146", "value": 1.019}, {"measurement": "fold change: IGFBP7", "value": 0.992}, {"measurement": "fold change: IL6", "value": 1.260}, {"measurement": "fold change: IRS1", "value": 1.014}, {"measurement": "fold change: IRS-1 S612", "value": 0.952}, {"measurement": "fold change: IkappaB-alpha S32/36", "value": 1.130}, {"measurement": "fold change: Insulin Receptor Beta", "value": 1.261}, {"measurement": "fold change: Jak2 Y1007", "value": 0.881}, {"measurement": "fold change: KI67", "value": 0.731}, {"measurement": "fold change: LC3B", "value": 1.097}, {"measurement": "fold change: LIMK1 T508/LIMK2 T505", "value": 0.795}, {"measurement": "fold change: LKB1 S428", "value": 1.269}, {"measurement": "fold change: MARCKS S152/156", "value": 1.071}, {"measurement": "fold change: MCSFR Y723", "value": 1.228}, {"measurement": "fold change: MDM2 S166", "value": 0.868}, {"measurement": "fold change: MEK 1/2 S217/221", "value": 0.770}, {"measurement": "fold change: Met Y1234/1235", "value": 1.033}, {"measurement": "fold change: Musashi", "value": 0.898}, {"measurement": "fold change: NF-kappaB p65 S536", "value": 0.817}, {"measurement": "fold change: PAK1 S199/204-PAK2 S192/197", "value": 1.221}, {"measurement": "fold change: PAK1 T423/PAK2 T402", "value": 1.028}, {"measurement": "fold change: PDGFR alpha Y754", "value": 1.144}, {"measurement": "fold change: PDGFR beta", "value": 0.705}, {"measurement": "fold change: PDGFR beta Y716", "value": 0.887}, {"measurement": "fold change: PDK1 S241", "value": 0.712}, {"measurement": "fold change: PDL1", "value": 34.857}, {"measurement": "fold change: PKA C T197", "value": 0.907}, {"measurement": "fold change: PKC delta/theta S643/S676", "value": 0.671}, {"measurement": "fold change: PLK1 T210", "value": 1.018}, {"measurement": "fold change: PTEN", "value": 0.726}, {"measurement": "fold change: PTEN S380", "value": 0.783}, {"measurement": "fold change: PUMA", "value": 0.919}, {"measurement": "fold change: RAS TOTAL", "value": 1.543}, {"measurement": "fold change: Ras_GRF1", "value": 1.021}, {"measurement": "fold change: Rb S780", "value": 0.674}, {"measurement": "fold change: Ret Y905", "value": 0.810}, {"measurement": "fold change: Ros Y2274", "value": 1.201}, {"measurement": "fold change: S6 Ribosomal Protein S240/244", "value": 0.817}, {"measurement": "fold change: SAPK/JNK T183/Y185", "value": 1.033}, {"measurement": "fold change: SGK1 S78", "value": 1.318}, {"measurement": "fold change: SMAD2 S245/250/255", "value": 0.760}, {"measurement": "fold change: STAT3 S727", "value": 1.040}, {"measurement": "fold change: Shc Y317", "value": 0.792}, {"measurement": "fold change: Smad1 Ser463/465-Smad5 Ser463/465-Smad9 Ser465/467", "value": 0.900}, {"measurement": "fold change: Src Y527", "value": 0.675}, {"measurement": "fold change: Src family Y416", "value": 0.471}, {"measurement": "fold change: Stat 1 Y701", "value": 0.937}, {"measurement": "fold change: Stat3 Y705", "value": 0.936}, {"measurement": "fold change: Stat 5 Y694", "value": 0.558}, {"measurement": "fold change: TGF-beta", "value": 0.952}, {"measurement": "fold change: TNF alpha", "value": 1.186}, {"measurement": "fold change: Tuberin/TSC2 Y1571", "value": 1.208}, {"measurement": "fold change: VEGFR2 Y996", "value": 0.828}, {"measurement": "fold change: Vimentin", "value": 0.896}, {"measurement": "fold change: XIAP", "value": 0.835}, {"measurement": "fold change: c-Abl T735", "value": 0.776}, {"measurement": "fold change: c-Abl Y245", "value": 0.846}, {"measurement": "fold change: c-ErbB2/HER2", "value": 1.938}, {"measurement": "fold change: c-Kit Y703", "value": 4.550}, {"measurement": "fold change: c-Met TOTAL", "value": 0.877}, {"measurement": "fold change: c-Myc", "value": 0.879}, {"measurement": "fold change: c-Raf S338", "value": 1.016}, {"measurement": "fold change: eIF4G S1108", "value": 0.791}, {"measurement": "fold change: eNOS/NOS III S116", "value": 0.902}, {"measurement": "fold change: mTOR S2448", "value": 1.034}, {"measurement": "fold change: p27 Kip1", "value": 0.925}, {"measurement": "fold change: p27 T187", "value": 0.685}, {"measurement": "fold change: p38 MAP Kinase T180/Y182", "value": 1.011}, {"measurement": "fold change: p53", "value": 0.997}, {"measurement": "fold change: p53 S15", "value": 0.990}, {"measurement": "fold change: p70S6 Kinase", "value": 0.674}, {"measurement": "fold change: p70 S6 Kinase S371", "value": 0.762}, {"measurement": "fold change: p70 S6 Kinase T389", "value": 0.773}, {"measurement": "fold change: p70 S6 Kinase T412", "value": 0.998}, {"measurement": "fold change: p90RSK S380", "value": 1.016}, {"measurement": "fold change: p90RSK T359/S363", "value": 0.884}, {"measurement": "fold change: pYAP S127", "value": 0.931}, {"measurement": "fold change: AMPK T172*", "setting": "[1]", "value": 0.598}, {"measurement": "fold change: AMPK total*", "setting": "[1]", "value": 1.69}, {"measurement": "fold change: PKM2 Y105*", "setting": "[1]", "value": 2.13}, {"measurement": "fold change: PKM2 total*", "setting": "[1]", "value": 1.01}]}
